# Laboratory results from patent US7704995B2 (Exelixis, Inc., priority 2003, dated 2010).
# Where two headings read alike, the source gives them in different places.
# Biological target: T1, Chk1 (Homo sapiens, UniProt O14757)
# T1 construct: purchased Upstate Biotechnology
# T1 sequence (O14757 1-476): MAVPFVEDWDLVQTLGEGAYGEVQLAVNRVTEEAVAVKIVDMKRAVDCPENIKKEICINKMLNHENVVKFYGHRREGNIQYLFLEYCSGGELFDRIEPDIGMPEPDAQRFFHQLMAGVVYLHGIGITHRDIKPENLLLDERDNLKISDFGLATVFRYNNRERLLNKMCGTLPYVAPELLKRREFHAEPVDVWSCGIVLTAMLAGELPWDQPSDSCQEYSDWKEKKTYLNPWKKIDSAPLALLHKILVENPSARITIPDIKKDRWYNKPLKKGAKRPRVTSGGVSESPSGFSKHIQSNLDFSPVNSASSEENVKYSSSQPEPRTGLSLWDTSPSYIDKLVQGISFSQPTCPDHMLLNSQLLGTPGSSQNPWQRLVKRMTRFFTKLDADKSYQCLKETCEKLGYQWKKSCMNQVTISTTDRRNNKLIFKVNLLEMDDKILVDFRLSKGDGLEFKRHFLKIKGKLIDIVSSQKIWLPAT
# Assay: Chk1 kinase assay: incorporation of γ-33P ATP into immobilized myelin basic protein
# Assay type: biochemical
# Settings: read-out: Chk1 IC50
# Summary of the method: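 Radiometric filter-free format: Chk1 10 nM, 10 μM ATP; Chk2 20 nM, 30 μM ATP; γ-33P ATP tracer; immobilized MBP substrate; Hepes pH 7.6, 10 mM MgCl2, 1 mM DTT; 1 h RT; 1% DMSO. Scintillation counting of washed plates. IC50/Ki from curve fit.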
# [1] = Table 11, Chk1 only, class symbols A-D
Compound,"IC50 (Table 11, Chk1 only) [µM]",IC50 [µM],further results
"CNC(=O)c1nc(-c2cccc(CNC3CCc4cc(Br)ccc43)c2)cnc1N (stereo not shown) [Example 461, 3-amino-6-(3-{[(5-bromo-2,3-dihydro-1H-inden-1-yl)amino]methyl}phenyl)-N-methylpyrazine-2-carboxamide]",0.05 to 1,,
"Nc1ncc(-c2cccc(NC(=O)Cc3cc(C(F)(F)F)cc(C(F)(F)F)c3)c2)nc1C(=O)N[C@H]1CCCNC1 [Example 913, 3-amino-6-[3-({[3,5-bis(trifluoromethyl)phenyl]acetyl}amino)phenyl]-N-[(3S)-piperidin-3-yl]pyrazine-2-carboxamide]",,,IC50 [1]: < 0.05 µM
"Nc1ncc(-c2cccc(C(=O)NCc3ccc(F)cc3F)c2)nc1C(=O)N[C@H]1CCCNC1 [Example 848, 3-amino-6-[3-({[(2,4-difluorophenyl)methyl]amino}carbonyl)phenyl]-N-[(3S)-piperidin-3-yl]pyrazine-2-carboxamide]",,,IC50 [1]: < 0.05 µM
"CC(C)(C)OC(=O)N1CC[C@H](NC(=O)c2nc(-c3cccc(C(=O)NCc4ccc(Cl)c(Cl)c4)c3)cnc2N)C1 [Example 823, 1,1-dimethylethyl (3S)-3-[({3-amino-6-[3-({[(3,4-dichlorophenyl)methyl]amino}carbonyl)phenyl]pyrazin-2-yl}carbonyl)amino]pyrrolidine-1-carboxylate]",,,IC50 [1]: 1 to 10 µM
"CNC(=O)c1nc(-c2cccc(CNCc3ccccc3N3CCCCC3)c2)cnc1N [Example 404, 3-amino-N-methyl-6-[3-({[(2-piperidin-1-ylphenyl)methyl]amino}methyl)phenyl]pyrazine-2-carboxamide]",,0.05 to 1,
"Nc1ncc(-c2cccc(C(=O)N[C@@H]3c4ccccc4C[C@@H]3O)c2)nc1C(=O)N[C@H]1CCCNC1 [Example 807, 3-amino-6-[3-({[(1R,2S)-2-hydroxy-2,3-dihydro-1H-inden-1-yl]amino}carbonyl)phenyl]-N-[(3S)-piperidin-3-yl]pyrazine-2-carboxamide]",,,IC50 [1]: < 0.05 µM
"CNC(=O)c1nc(-c2cccc(CN[C@H]3CCc4ccccc43)c2)cnc1N [Example 418, 3-amino-6-(3-{[(1S)-2,3-dihydro-1H-inden-1-ylamino]methyl}phenyl)-N-methylpyrazine-2-carboxamide]",,< 0.05,
"Nc1ncc(-c2cccc(CN[C@H]3CCc4ccccc43)c2)nc1-c1nc(C2CCNCC2)n[nH]1 [Example 639, 5-(3-{[(1S)-2,3-dihydro-1H-inden-1-ylamino]methyl}phenyl)-3-(3-piperidin-4-yl-1H-1,2,4-triazol-5-yl)pyrazin-2-amine]",0.05 to 1,,
"CNC(=O)c1nc(-c2cccc(C(=O)NCc3ccccc3O)c2)cnc1N [Example 327, 3-amino-6-[3-({[(2-hydroxyphenyl)methyl]amino}carbonyl)phenyl]-N-methylpyrazine-2-carboxamide]",,0.05 to 1,
"Cc1ccc(Cl)cc1CNC(=O)c1cccc(-c2cnc(N)c(C(=O)N[C@H]3CCCNC3)n2)c1 [Example 993, 3-amino-6-[3-({[(5-chloro-2-methylphenyl)methyl]amino}carbonyl)phenyl]-N-[(3S)-piperidin-3-yl]pyrazine-2-carboxamide]",,,IC50 [1]: < 0.05 µM
"CNC(=O)c1nc(-c2ccc(Cl)c(C(=O)NCc3ccccc3)c2)cnc1N [Example 240, 3-amino-6-(4-chloro-3-{[(phenylmethyl)amino]carbonyl}phenyl)-N-methylpyrazine-2-carboxamide]",,0.05 to 1,
"Nc1ncc(-c2cccc(C(=O)NCc3ccc(Cl)cc3)c2)nc1-c1nnc([C@H]2CCCNC2)[nH]1 [Example 838, 3-(5-amino-6-{5-[(3S)-piperidin-3-yl]-4H-1,2,4-triazol-3-yl}pyrazin-2-yl)-N-[(4-chlorophenyl)methyl]benzamide]",,,IC50 [1]: < 0.05 µM
"CNC(=O)c1nc(-c2cccc(C(=O)Nc3ccccc3)c2)cnc1N [Example 142, 3-amino-N-methyl-6-{3-[(phenylamino)carbonyl]phenyl}pyrazine-2-carboxamide]",,1 to 10,
"COc1cccc(-c2cnc(N)c(C(=O)N[C@H]3CCCNC3)n2)c1 [Example 961, 3-amino-6-[3-(methyloxy)phenyl]-N-[(3S)-piperidin-3-yl]pyrazine-2-carboxamide]",,,IC50 [1]: < 0.05 µM
"CNC(=O)c1nc(-c2cccc(NC(=O)c3ccc(OC)cc3)c2)cnc1N [Example 106, 3-amino-N-methyl-6-[3-({[4-(methyloxy)phenyl]carbonyl}amino)phenyl]pyrazine-2-carboxamide]",,0.05 to 1,
"Nc1ncc(-c2cccc(C(=O)NCc3ccccc3Br)c2)nc1C(=O)N[C@H]1CCCNC1 [Example 872, 3-amino-6-[3-({[(2-bromophenyl)methyl]amino}carbonyl)phenyl]-N-[(3S)-piperidin-3-yl]pyrazine-2-carboxamide]",,,IC50 [1]: < 0.05 µM
"Nc1ncc(-c2cccc(C(=O)NCc3ccc(Cl)cc3)c2)nc1C(=O)N[C@H]1CCNC1 [Example 760, 3-amino-6-[3-({[(4-chlorophenyl)methyl]amino}carbonyl)phenyl]-N-[(3S)-pyrrolidin-3-yl]pyrazine-2-carboxamide]",< 0.05,,
"CNC(=O)c1nc(-c2ccc3ccnc(N[C@H]4CCc5ccccc54)c3c2)cnc1N [Example 525, 3-amino-6-{1-[(1S)-2,3-dihydro-1H-inden-1-ylamino]isoquinolin-7-yl}-N-methylpyrazine-2-carboxamide]",0.05 to 1,,
"CNC(=O)c1nc(-c2cccc(NC(=O)Cc3ccc(Cl)cc3)c2)cnc1N [Example 155, 3-amino-6-(3-{[(4-chlorophenyl)acetyl]amino}phenyl)-N-methylpyrazine-2-carboxamide]",,0.05 to 1,

# Further lines, with some results ahead:
"IC50 (Table 11, Chk1 only) [µM]",IC50 [µM],Compound,further results
≥ 10,,"Cc1ccc(N/N=C/c2nc(-c3cccc(C(=O)NCc4ccccc4)c3)cnc2N)cc1 [Example 680, 3-(5-amino-6-{(E)-[(4-methylphenyl)hydrazono]methyl}pyrazin-2-yl)-N-(phenylmethyl)benzamide]",
≥ 10,,"Nc1ncc(-c2cccc(C(=O)NCc3ccccc3)c2)nc1C(=O)c1ccc(-c2ccccc2)cc1 [Example 579, 3-[5-amino-6-(biphenyl-4-ylcarbonyl)pyrazin-2-yl]-N-(phenylmethyl)benzamide]",
0.05 to 1,,"CNC(=O)c1cc(-c2cccc(CN[C@H]3CCc4ccccc43)c2)cnc1N [Example 509, 2-amino-5-(3-{[(1S)-2,3-dihydro-1H-inden-1-ylamino]methyl}phenyl)-N-methylpyridine-3-carboxamide]",
1 to 10,,"C[C@H](NC(=O)c1cccc(-c2cnc(N)c(C(=O)N[C@H]3CCN(C(=O)OC(C)(C)C)C3)n2)c1)c1ccccc1 [Example 713, 1,1-dimethylethyl (3S)-3-[({3-amino-6-[3-({[(1S)-1-phenylethyl]amino}carbonyl)phenyl]pyrazin-2-yl}carbonyl)amino]pyrrolidine-1-carboxylate]",
0.05 to 1,,"CNC(=O)c1nc(-c2cccc(C(=O)NNc3ccc(F)cc3F)c2)cnc1N [Example 433, 3-amino-6-(3-{[2-(2,4-difluorophenyl)hydrazino]carbonyl}phenyl)-N-methylpyrazine-2-carboxamide]",
,1 to 10,"CNC(=O)c1nc(-c2cccc(C(=O)NCc3cnc(C)cn3)c2)cnc1N [Example 120, 3-amino-N-methyl-6-[3-({[(5-methylpyrazin-2-yl)methyl]amino}carbonyl)phenyl]pyrazine-2-carboxamide]",
≥ 10,,"C/C(=N\n1nnc2ccccc21)c1nc(-c2cccc(C(=O)NCc3ccccc3)c2)cnc1N [Example 637, 3-{5-amino-6-[(1E)-N-1H-1,2,3-benzotriazol-1-ylethanimidoyl]pyrazin-2-yl}-N-(phenylmethyl)benzamide]",
1 to 10,,"CC(C)(C)OC(=O)N1CC[C@H](NC(=O)c2nc(-c3cccc(C(=O)NC4CCOc5ccccc54)c3)cnc2N)C1 (stereo partly drawn) [Example 759, 1,1-dimethylethyl (3S)-3-{[(3-amino-6-{3-[(3,4-dihydro-2H-chromen-4-ylamino)carbonyl]phenyl}pyrazin-2-yl)carbonyl]amino}pyrrolidine-1-carboxylate]",
,0.05 to 1,"CNC(=O)c1nc(-c2cccc(C(=O)NCC3CCN(C(=O)OC(C)(C)C)C3)c2)cnc1N (stereo not shown) [Example 364, 1,1-dimethylethyl 3-({[(3-{5-amino-6-[(methylamino)carbonyl]pyrazin-2-yl}phenyl)carbonyl]amino}methyl)pyrrolidine-1-carboxylate]",
1 to 10,,"Nc1ncc(-c2cccc(C(=O)NCc3ccccc3)c2)nc1C(=O)N1CCOCC1 [Example 566, 3-[5-amino-6-(morpholin-4-ylcarbonyl)pyrazin-2-yl]-N-(phenylmethyl)benzamide]",
< 0.05,,"CNC(=O)c1nc(-c2ccc3c(c2)C(N[C@H]2CCc4ccccc42)CC3)cnc1N (stereo partly drawn) [Example 526, 3-amino-6-{3-[(1S)-2,3-dihydro-1H-inden-1-ylamino]-2,3-dihydro-1H-inden-5-yl}-N-methylpyrazine-2-carboxamide]",
,0.05 to 1,"CNC(=O)c1nc(-c2cccc(C(=O)NCc3cc(C)cc(C)c3)c2)cnc1N [Example 212, 3-amino-6-[3-({[(3,5-dimethylphenyl)methyl]amino}carbonyl)phenyl]-N-methylpyrazine-2-carboxamide]",
